Laboratory results published in ChEMBL document CHEMBL3046208, “Natural and synthetic podolactones with potential use as natural herbicide models” (2000).
Calls of active or inactive are those of the source. No cut-off for these calls is given here.

Tests used:
Format in all cases: functional
[1] = system: Hordeum vulgare; assay: Stimulation of root length of Hordeum vulgare (barley) at 0.1 mM after 5 days relative to untreated control
[2] = system: Triticum aestivum; assay: Stimulation of shoot length of Triticum aestivum (wheat) at 0.1 mM after 5 days relative to untreated control
[3] = system: Hordeum vulgare; assay: Stimulation of germination of Hordeum vulgare (barley) at 0.1 mM after 5 days relative to untreated control
[4] = system: Triticum aestivum; assay: Stimulation of root length of Triticum aestivum (wheat) at 0.1 mM after 5 days relative to untreated control
[5] = system: Triticum aestivum; assay: Stimulation of germination of Triticum aestivum (wheat) at 0.1 mM after 5 days relative to untreated control
[6] = system: Allium cepa; assay: Stimulation of root length of Allium cepa (onion) at 0.1 mM after 5 days relative to untreated control
[7] = system: Allium cepa; assay: Stimulation of shoot length of Allium cepa (onion) at 0.1 mM after 5 days relative to untreated control
[8] = system: Allium cepa; assay: Stimulation of germination of Allium cepa (onion) at 0.1 mM after 5 days relative to untreated control
[9] = system: Solanum lycopersicum; assay: Stimulation of shoot length of Solanum lycopersicum (tomato) at 0.1 mM after 5 days relative to untreated control
[10] = system: Solanum lycopersicum; assay: Stimulation of root length of Solanum lycopersicum (tomato) at 0.1 mM after 5 days relative to untreated control
[11] = system: Solanum lycopersicum; assay: Stimulation of germination of Solanum lycopersicum (tomato) at 0.1 mM after 5 days relative to untreated control
[12] = system: Lepidium sativum; assay: Stimulation of shoot length of Lepidium sativum at 0.1 mM after 5 days relative to untreated control
[13] = system: Lepidium sativum; assay: Stimulation of root length of Lepidium sativum at 0.1 mM after 5 days relative to untreated control
[14] = system: Lactuca sativa; assay: Stimulation of shoot length of Lactuca sativa cv. Roman (lettuce) at 0.1 mM after 5 days relative to untreated control
[15] = system: Lepidium sativum; assay: Stimulation of germination of Lepidium sativum at 0.1 mM after 5 days relative to untreated control
[16] = system: Lactuca sativa; assay: Stimulation of root length of Lactuca sativa cv. Roman (lettuce) at 0.1 mM after 5 days relative to untreated control
[17] = system: Lactuca sativa; assay: Stimulation of germination of Lactuca sativa cv. Roman (lettuce) at 0.1 mM after 5 days relative to untreated control
[18] = system: Lactuca sativa; assay: Stimulation of shoot length of Lactuca sativa cv. Nigra (lettuce) at 0.1 mM after 5 days relative to untreated control
[19] = system: Lactuca sativa; assay: Stimulation of root length of Lactuca sativa cv. Nigra (lettuce) at 0.1 mM after 5 days relative to untreated control
[20] = system: Lactuca sativa; assay: Stimulation of germination of Lactuca sativa cv. Nigra (lettuce) at 0.1 mM after 5 days relative to untreated control
[21] = system: Triticum aestivum; assay: Inhibition of shoot length of Triticum aestivum (wheat) at 0.1 mM after 5 days relative to untreated control
[22] = system: Hordeum vulgare; assay: Inhibition of germination of Hordeum vulgare (barley) at 0.1 mM after 5 days relative to untreated control; details: 120 h
[23] = system: Hordeum vulgare; assay: Inhibition of root length of Hordeum vulgare (barley) at 0.1 mM after 5 days relative to untreated control; details: 120 h
[24] = system: Hordeum vulgare; assay: Stimulation of shoot length of Hordeum vulgare (barley) at 0.1 mM after 5 days relative to untreated control
[25] = system: Lactuca sativa; assay: Inhibition of germination of Lactuca sativa cv. Nigra (lettuce) at 0.1 mM after 5 days relative to untreated control; details: 120 h
[26] = system: Lactuca sativa; assay: Inhibition of root length of Lactuca sativa cv. Nigra (lettuce) at 0.1 mM after 5 days relative to untreated control; details: 120 h
[27] = system: Lactuca sativa; assay: Inhibition of shoot length of Lactuca sativa cv. Nigra (lettuce) at 0.1 mM after 5 days relative to untreated control; details: 120 h
[28] = system: Lactuca sativa; assay: Inhibition of germination of Lactuca sativa cv. Roman (lettuce) at 0.1 mM after 5 days relative to untreated control; details: 120 h
[29] = system: Lactuca sativa; assay: Inhibition of root length of Lactuca sativa cv. Roman (lettuce) at 0.1 mM after 5 days relative to untreated control; details: for inhibition at 100 µM: 120 h
[30] = system: Lactuca sativa; assay: Inhibition of shoot length of Lactuca sativa cv. Roman (lettuce) at 0.1 mM after 5 days relative to untreated control; details: 120 h
[31] = system: Lepidium sativum; assay: Inhibition of germination of Lepidium sativum at 0.1 mM after 5 days relative to untreated control
[32] = system: Lepidium sativum; assay: Inhibition of root length of Lepidium sativum at 0.1 mM after 5 days relative to untreated control; details: for inhibition at 100 µM: 120 h
[33] = system: Lepidium sativum; assay: Inhibition of shoot length of Lepidium sativum at 0.1 mM after 5 days relative to untreated control; details: 120 h
[34] = system: Solanum lycopersicum; assay: Inhibition of germination of Solanum lycopersicum (tomato) at 0.1 mM after 5 days relative to untreated control; details: for inhibition at 100 µM: 120 h
[35] = system: Solanum lycopersicum; assay: Inhibition of root length of Solanum lycopersicum (tomato) at 0.1 mM after 5 days relative to untreated control; details: for inhibition at 100 µM: 120 h
[36] = system: Solanum lycopersicum; assay: Inhibition of shoot length of Solanum lycopersicum (tomato) at 0.1 mM after 5 days relative to untreated control; details: for inhibition at 100 µM: 120 h
[37] = system: Allium cepa; assay: Inhibition of germination of Allium cepa (onion) at 0.1 mM after 5 days relative to untreated control; details: 120 h
[38] = system: Allium cepa; assay: Inhibition of root length of Allium cepa (onion) at 0.1 mM after 5 days relative to untreated control; details: for inhibition at 100 µM: 120 h
[39] = system: Allium cepa; assay: Inhibition of shoot length of Allium cepa (onion) at 0.1 mM after 5 days relative to untreated control; details: 120 h
[40] = system: Triticum aestivum; assay: Inhibition of germination of Triticum aestivum (wheat) at 0.1 mM after 5 days relative to untreated control; details: for inhibition at 100 µM: 120 h
[41] = system: Triticum aestivum; assay: Inhibition of root length of Triticum aestivum (wheat) at 0.1 mM after 5 days relative to untreated control
[42] = system: Hordeum vulgare; assay: Inhibition of shoot length of Hordeum vulgare (barley) at 0.1 mM after 5 days relative to untreated control

COc1nc(C)nc(NC(=O)NS(=O)(=O)c2ccccc2OCCCl)n1 [LOGRAN]
Activity [1]: >40% | Activity [2]: 20% | Activity [3]: >40% | Activity [4]: 20% | Activity [5]: >40% | Activity [6]: >40% | Activity [7]: >40% | Activity [8]: 20% | Activity [9]: >40% | Activity [10]: >40% | Activity [11]: 20% | Activity [12]: <20% | Activity [13]: >40% | Activity [14]: >40% | Activity [15]: inactive | Activity [16]: >40% | Activity [17]: >40% | Activity [18]: >40% | Activity [19]: >40% | Activity [20]: >40% | inhibition at 100 µM ([21]; 120 h): 20% | inhibition at 100 µM [22]: > 40% | inhibition at 100 µM [23]: > 40% | Activity [24]: 20% | inhibition at 100 µM [25]: > 40% | inhibition at 100 µM [26]: > 40% | inhibition at 100 µM [27]: > 40% | inhibition at 100 µM [28]: > 40% | inhibition at 100 µM [29]: > 40% | inhibition at 100 µM [30]: > 40% | inhibition [31]: inactive | inhibition at 100 µM [32]: > 40% | inhibition at 100 µM [33]: < 20% | inhibition at 100 µM [34]: 20% | inhibition at 100 µM [35]: > 40% | inhibition at 100 µM [36]: > 40% | inhibition at 100 µM [37]: 20% | inhibition at 100 µM [38]: > 40% | inhibition at 100 µM [39]: > 40% | inhibition at 100 µM [40]: > 40% | inhibition at 100 µM ([41]; 120 h): 20% | inhibition at 100 µM ([42]; 120 h): 20%

COC(=O)[C@@]1(C)CCC[C@@]2(C)[C@H]1CC=C1COC(=O)C[C@@H]12
Activity [1]: 20% | Activity [2]: inactive | Activity [3]: >40% | Activity [4]: inactive | Activity [5]: <20% | Activity [6]: inactive | Activity [7]: <20% | Activity [8]: 20% | Activity [9]: 20% | Activity [10]: >40% | Activity [11]: <20% | Activity [12]: <20% | Activity [13]: inactive | Activity [14]: <20% | Activity [15]: inactive | Activity [16]: <20% | Activity [17]: <20% | Activity [18]: <20% | Activity [19]: <20% | Activity [20]: <20% | inhibition [21]: inactive | inhibition at 100 µM [22]: > 40% | inhibition at 100 µM [23]: 20% | Activity [24]: inactive | inhibition at 100 µM [25]: < 20% | inhibition at 100 µM [26]: < 20% | inhibition at 100 µM [27]: < 20% | inhibition at 100 µM [28]: < 20% | inhibition at 100 µM [29]: < 20% | inhibition at 100 µM [30]: < 20% | inhibition [31]: inactive | inhibition [32]: inactive | inhibition at 100 µM [33]: < 20% | inhibition at 100 µM [34]: < 20% | inhibition at 100 µM [35]: > 40% | inhibition at 100 µM [36]: 20% | inhibition at 100 µM [37]: 20% | inhibition [38]: inactive | inhibition at 100 µM [39]: < 20% | inhibition at 100 µM [40]: < 20% | inhibition [41]: inactive | inhibition [42]: inactive

COC(=O)[C@@]1(C)CCC[C@]2(C)C3=CC(=O)OCC3=CC[C@@H]12
Activity [1]: >40% | Activity [2]: inactive | Activity [3]: 20% | Activity [4]: inactive | Activity [5]: inactive | Activity [6]: 20% | Activity [7]: 20% | Activity [8]: <20% | Activity [9]: inactive | Activity [10]: inactive | Activity [11]: inactive | Activity [12]: 20% | Activity [13]: 20% | Activity [14]: <20% | Activity [15]: inactive | Activity [16]: inactive | Activity [17]: <20% | Activity [18]: <20% | Activity [19]: <20% | Activity [20]: 20% | inhibition [21]: inactive | inhibition at 100 µM [22]: 20% | inhibition at 100 µM [23]: > 40% | Activity [24]: inactive | inhibition at 100 µM [25]: 20% | inhibition at 100 µM [26]: < 20% | inhibition at 100 µM [27]: < 20% | inhibition at 100 µM [28]: < 20% | inhibition [29]: inactive | inhibition at 100 µM [30]: < 20% | inhibition [31]: inactive | inhibition at 100 µM [32]: 20% | inhibition at 100 µM [33]: 20% | inhibition [34]: inactive | inhibition [35]: inactive | inhibition [36]: inactive | inhibition at 100 µM [37]: < 20% | inhibition at 100 µM [38]: 20% | inhibition at 100 µM [39]: 20% | inhibition [40]: inactive | inhibition [41]: inactive | inhibition [42]: inactive
